Several values for one entry are separate records, joined by “and”; a condition that tells them apart may be missing. Equal entries are not always repeated.

Usually IC50 stands for the concentration at which inhibition is half-maximal.

This experiment deals with S. Typhi PhoP-promoter GFP reporter, fluorescence, 4 h. Briefly: PhoP regulon inhibitor project modified counter assay, GFP fluorescence readout, dose response (AID 1985).
Take `CC(C(=O)NC1CCS(=O)(=O)C1)N1C(=O)/C(=C/c2ccc(Cl)cc2)SC1=S` (centres undefined): the IC50 was 18.3 µM.
For the molecule `Clc1c(OCCCn2ccnc2)ccc2ccccc12`, the IC50 was 149 µM.
Consider `COc1cc(Br)cc(C=Nc2cccc(C(F)(F)F)c2)c1O`, for which the IC50 was 69.4 µM.
Under `CO[C@H]1C=CO[C@@]2(C)Oc3c(C)c(O)c4c(O)c(c(C=NN5CCN(C)CC5)c(O)c4c3C2=O)NC(=O)C(C)=CC=C[C@H](C)[C@H](O)[C@@H](C)[C@@H](O)[C@@H](C)[C@H](OC(C)=O)[C@@H]1C` stands 23.8 µM.
The same measure for `CCn1cc(C(=O)O)c(=O)c2cc(F)c(N3CCN(C(=S)Nc4ccc(OC)cc4)CC3)cc21`: 5.64 µM; for `O=C(O)c1cn(C2CC2)c2cc(N3CCN(S(=O)(=O)c4ccc5c(c4)OCCO5)CC3)c(F)cc2c1=O`: 28.2 µM.
`C(=N/Nc1nccs1)/c1cccnc1`: the IC50 is 61.5 µM.
The same measure for `O=C(NC(=S)NNC(=O)c1ccccc1O)c1ccco1`: 23.8 µM; for `COc1ccc(C(=O)NC(=S)NNC(=O)c2cnccn2)cc1OC`: 60.1 µM; for `CN(C)C1C(=O)C(C(N)=O)=C(O)C2(O)C(=O)C3=C(O)c4c(O)cccc4C(C)(O)C3C(O)C12` (centres undefined): 1.54 µM.
The same measure for `Brc1ccc2c(c1)C(OC1CN3CCC1CC3)c1ccccc1CS2` (centres undefined): 95.5 µM; for `OCCN1CCN(C2Cc3cc(Cl)ccc3Sc3ccc(Cl)cc32)CC1` (centres undefined) (tested in a mixture with another compound): 74.8 µM.
The same measure for `C#CCOCCOCCOCCNc1nc(N2CCN(C(=O)CCCCCCCCCCNC(=O)[C@H]([C@@H](C)CC)n3cc(CCCCN=C(N)N)nn3)CC2)nc(N2CCN(C(=O)CCCCCCCCCCNC(=O)[C@H](CCCCN)n3cc(C)nn3)CC2)n1`: 69.3 µM; for `C#CCOCCOCCOCCNc1nc(N2CCN(C(=O)CCCCCCCCCCNC(=O)Cn3cc(CCCCCN)nn3)CC2)nc(N2CCN(C(=O)CCCCCCCCCCNC(=O)[C@H]([C@@H](C)CC)n3cc(CCCCN=C(N)N)nn3)CC2)n1`: 36.8 µM; for `Oc1ccc(CN2CCCc3ccccc32)c2cccnc12`: 36.1 µM.
On to `COc1cc2c(cc1OC)[C@H](Cc1ccc(O)cc1)NCC2`, for which the IC50 was 87 µM.
On to `CN1CCN(C2Cc3cc(F)ccc3Sc3ccc(Cl)cc32)CC1` (centres undefined), for which the IC50 is 74.4 µM.
On to `CN1CCN(C(c2ccc(Br)cc2)c2cc(Cl)c3cccnc3c2O)CC1` (centres undefined), for which the IC50 was 33.6 µM.
The same measure for `CN(C)CCCNC(=S)NCC(c1ccc(Cl)cc1Cl)c1c[nH]c2ccccc12` (centres undefined): 36.5 µM.
As for `CC1CCC(C(C)C)C(OC(=O)Cn2c(-c3ccc(Cl)cc3)[n+](C)c3ccccc32)C1` (centres undefined), the IC50 was 144 µM.
On to `OCCCNc1c2ccccc2nc2ccccc12`, for which the IC50 is 136 µM.
Under `Clc1ccc(CN2C3=NCCN3c3ccccc32)cc1` stands 89.4 µM.
`N/C(=N\OS(=O)(=O)c1ccc(Cl)cc1)c1cccnc1`: the IC50 is 91.3 µM.
In the case of `O=c1[nH]cc(F)c(=O)[nH]1`, the IC50 is 0.378 µM.
As to `O=C(/C=C(\O)c1ccccc1)C(=O)NNC(=O)c1ccccc1`, the IC50 was 19.7 µM.
Consider `O=C(NC1CCCC1)c1ccc(Br)s1`, for which the IC50 was 34 µM.
The same measure for `O=C(CCc1ccccc1)NNC(=O)c1ccccn1`: 101 µM.
Turning to `Cc1cc(OCCCCCNCCO)cc(C)c1Cl`, the IC50 is 147 µM.
The same measure for `Nc1nonc1-n1nnc(C(=O)N/N=C/c2cc(Br)ccc2O)c1CSC1=NCCS1`: 26 µM.
With `O=C(/C=C/c1ccccc1Cl)c1ccccc(=O)c1O`, the IC50 was 37.9 µM.
Take `Oc1c(CN2CCCCC2)cc(Br)c2cccnc12`: the IC50 was 19.8 µM.
Under `Oc1c(Br)cc(Br)cc1C=Nc1ccc2[nH]ncc2c1` stands 48.6 µM; under `CCS(=O)(=O)c1ccc2oc(=O)c(/C=C(\O)c3ccc(Cl)cc3)nc2c1`, 65.1 µM.
Under `O=C(Oc1ccccc1)c1cc2ccccc2o1` stands 76.2 µM; under `CN1/C(=C\C=C\C2=[N+](C)c3ccc4ccccc4c3C2(C)C)C(C)(C)c2ccccc21`, 3.62 µM.
Regarding `O=C(N/N=C\c1c[nH]c2ccccc12)c1ccc(O)cc1`, the IC50 is 134 µM.
The same measure for `O=C(CCN1CCN(c2ccccc2)CC1)c1ccc(Br)cc1`: 98.6 µM; for `COc1ccc(N2C3=C(CC4=C2CC(C)(C)CC4=O)C(=O)CC(C)(C)C3)cc1`: 146 µM; for `OCCNc1nc(Nc2ccccc2)nc2ccccc12`: 35.2 µM.
Under `Oc1ccc(C[C@H]2CNCCN2CCCCC2CCCCC2)cc1` stands 81.7 µM.
`CC(C)(C)c1ccc(OCCCCCCN2CCNCC2)cc1`: the IC50 was 127 µM.
Turning to `O=C(NC(CO)C(O)c1ccc([N+](=O)[O-])cc1)C(Cl)Cl` (centres undefined), the IC50 was 2.55 µM.
On to `CCCCCC[N+](C)(C)CC/C=C1/c2ccccc2Sc2ccc(Cl)cc21`, for which the IC50 is 36.3 µM.
The same measure for `O=C(Nc1ccc(Cl)cc1)c1cccs1`: 105 µM.
On to `CCCOc1ccc(C(=O)NNC(=S)NC(=O)CC)cc1`, for which the IC50 is 78.8 µM.
Under `Cc1cc2nc(C3CCN(CC4COc5ccccc5O4)CC3)[nH]c2cc1C` (centres undefined) stands 15.2 µM.
The same measure for `CCn1nnc(NC(=O)c2ccc([N+](=O)[O-])o2)n1`: 28.4 µM.
Under `COc1cccc(C=NCC(C)N=Cc2cccc(OC)c2O)c1O` (centres undefined) stands 74.1 µM.
Take `O=C(NC(C(=O)c1ccccc1)n1c(=O)cc[nH]c1=S)c1ccccc1` (centres undefined): the IC50 is 120 µM.
As for `CCn1cc(C(=O)O)c(=O)c2cc(F)c(N3CCN(C(=S)NC(=O)c4cccc(F)c4)CC3)cc21`, the concentration for half-maximal inhibition (IC50) is 27.2 µM.
The same measure for `O=C(N/N=C/c1ccc([N+](=O)[O-])s1)c1cccnc1`: 22.8 µM; for `CCCCOc1ccc(C(=O)OC2CC(C)N(C)CC2C)cc1` (centres undefined): 41.7 µM; for `C/C(=N\NC(=O)c1ccc(CN2CCc3ccccc3C2)cc1)c1ccccc1O`: 42 µM.
Under `CC(NCc1ccc(Cl)cc1)C(O)c1ccccc1` (centres undefined) stands 128 µM; under `CCc1cccc2c1Sc1ccccc1CC2N1CCNCC1` (centres undefined), 44.4 µM; under `Cc1cc(=O)[nH]c(-n2nc(C)cc2C)n1`, 67.5 µM.
In the case of `O=C(CCc1ccccc1)NNC(=S)NC(=O)c1ccccc1`, the IC50 was 122 µM.
As to `Cc1ccc(C(c2cc(Cl)c3cccnc3c2O)N2CCN(C)CC2)cc1` (centres undefined), the IC50 is 48.2 µM.
Under `CN1CCc2c(sc(NC(=O)c3ccc([N+](=O)[O-])o3)c2C(N)=O)C1` stands 11 µM; under `CCCCCCCCCCOC(=O)Cn1c(COc2ccc(OC)cc2)[n+](C)c2ccccc21`, 19.4 µM and 18.5 µM.
Under `CCn1cc(C(=O)NCCCN(C)C)c(=O)c2cc(F)c(N3CCN(C)CC3)cc21` stands 35.5 µM; under `COc1cc(C(=O)N/N=C/c2ccc(OC(=O)c3cccc(C)c3)c(OC)c2)ccc1O`, 20.9 µM.
The same measure for `CCn1cc(C(=O)O)c(=O)c2cnc(N3CCNCC3)nc21`: 113 µM.
For `O=C(c1cccs1)c1no[n+]([O-])c1C(=O)c1cccs1`, the IC50 was 14 µM.
The same measure for `N=c1n(CCN2CCCCC2)c2ccccc2n1CC(O)COc1ccccc1` (centres undefined): 90.2 µM; for `O=C(N/N=C/c1ccc([N+](=O)[O-])s1)c1ccccc1Br`: 27.7 µM; for `CCCNC1=C(C)C(=O)C2=C(C1=O)C(COC(N)=O)[C@]1(OC)C3NC3CN21` (some centres undefined): 51.8 µM.
The same measure for `CCCCCNC(=O)c1cn(CC)c2cc(N3CCN(C)CC3)c(F)cc2c1=O`: 80.1 µM; for `O=C(CN1C2=NCCCN2c2ccccc21)c1ccc(Br)s1`: 135 µM.

The record behind these values is PubChem BioAssay AID1985 (Southern Research Specialized Biocontainment Screening …, 2009).
